From ChEMBL document CHEMBL4616697, “Discovery of Adamantane Carboxamides as Ebola Virus Cell Entry and Glycoprotein Inhibitors” (ACS Med Chem Lett, 2020) come the findings set out here.

Data set [1] has as its system Vero. As to the kind of experiment: Inhibition of glycoprotein in VSV pseudotyped Ebolavirus infected in African green monkey Vero cells assessed as reduction in virus entry at 5 uM incubated for 24 hrs by luciferase reporter gene assay relative to control. It counts as cell-based.
A short description of data set [2]: Inhibition of glycoprotein in VSV pseudotyped Ebolavirus infected in African green monkey Vero cells assessed as reduction in virus entry incubated for 24 hrs by luciferase reporter gene assay. It counts as cell-based.
The nature of data set [3]: Kinetic aqueous solubility of compound in PBS at pH 6.4 to 7.5 measured after 2 hrs by spectrophotometry analysis. It is filed as physicochemical. As to conditions: read-out: Kinetic_solubility.
The subject of data set [4] is Vero. Put plainly: Inhibition of glycoprotein in pseudotyped Vesicular stomatitis virus infected in African green monkey Vero cells assessed as reduction in virus entry at 5 uM incubated for 24 hrs by luciferase reporter gene assay. It is filed as cell-based.
A short description of data set [5]: Metabolic stability in mouse liver microsomes assessed as parent compound remaining at 1 uM pretreated for 30 mins followed by NADPH addition and measured after 60 mins by LC-MS/MS analysis. It counts as ADME, Microsome. The settings on record: read-out: Stability.
The nature of data set [6]: Metabolic stability in rat liver microsomes assessed as parent compound remaining at 1 uM pretreated for 30 mins followed by NADPH addition and measured after 60 mins by LC-MS/MS analysis. It counts as ADME, Microsome. As to conditions: read-out: Stability.
The next data set relates to Ebolavirus. As to the kind of experiment: Antiviral activity against wild type Ebolavirus infected in African green monkey Vero cells assessed as reduction in plaque forming units incubated for 10 days by crystal violet staining based assay. It is filed as functional, organism-based. As to conditions: Orthoebolavirus, 240 h.
Data set [7] can be described thus: Metabolic stability in Cynomolgus monkey liver microsomes assessed as parent compound remaining at 1 uM pretreated for 30 mins followed by NADPH addition and measured after 60 mins by LC-MS/MS analysis. It is filed as ADME, Macaca fascicularis, Microsome. The settings on record: read-out: Stability.
Data set [8] can be described thus: Aqueous solubility of compound in PBS at pH 7.4 measured after 2 hrs by spectrophotometry analysis. It is filed as physicochemical.
Data set [9] in a line: Selectivity index, ratio of CC50 for African green monkey Vero E6 cells assessed as reduction in cell viability incubated for 10 days by neutral red dye based spectrophotometry analysis to EC50 for wild type Ebolavirus infected in African green monkey Vero cells assessed as reduction in plaque forming units incubated for 10 days by crystal violet staining based assay. As to conditions: read-out: Ratio CC50/EC50. It is filed as toxicity, Vero C1008.

The nature of data set [10]: Metabolic stability in dog liver microsomes assessed as parent compound remaining at 1 uM pretreated for 30 mins followed by NADPH addition and measured after 60 mins by LC-MS/MS analysis. It is filed as ADME, Canis lupus familiaris, Microsome. As to conditions: read-out: Stability.
Data set [11] can be described thus: Metabolic stability in guinea pig liver microsomes assessed as parent compound remaining at 1 uM pretreated for 30 mins followed by NADPH addition and measured after 60 mins by LC-MS/MS analysis. It counts as ADME, Cavia porcellus, Microsome. The settings on record: read-out: Stability.
A short description of data set [12]: Metabolic stability in human liver microsomes assessed as parent compound remaining at 1 uM pretreated for 30 mins followed by NADPH addition and measured after 60 mins by LC-MS/MS analysis. It is filed as ADME, Microsome. The settings on record: microsomes, 1 h, 1 µM.
The nature of data set [13]: Cytotoxicity against African green monkey Vero E6 cells assessed as reduction in cell viability incubated for 10 days by neutral red dye based spectrophotometry analysis. Set-up: species or system Vero C1008. The settings on record: chlorocebus sabaeus.

Calls of active or inactive are those of the source. The rule behind the calls is not given here. Some results are limits rather than exact numbers.

As for `O=C(NC1CCN(Cc2ccccc2)CC1)C12CC3CC(CC(C3)C1)C2`, the inhibition with Vero [1] was more than 50%. In addition, in data set [2] (Orthoebolavirus, Vero, 24 h), the EC50 came out at 3900 nM. Besides, the solubility kinetic at 2 h in data set [3] was more than 100 µM. In addition, the inhibition result in the data set on Vero [4] was “inactive”.

Turning to `CCC12CC3CC(C(=O)N[C@H]4CC[C@H](N)CC4)(C1)CC(c1ccccc1)(C3)C2` (stereo in doubt; 42), the remaining at 1 h, 1 µM in [5] was found to be 60%; in data set [6], 46%; in [7], 60%; in data set [10] it was 77%; in data set [11] it was 36%. Also, the results for the EC50 (with Ebolavirus; in data set [2] (vero)) were 140 nM and 12 nM, respectively. The compound also had a solubility at 2 h in [8] of more than 20 mg/mL. For the same compound, the selectivity ratio at 240 h in data set [9] is 221. In addition, the Stability in [12] worked out at 65%. In addition, in data set [13], the CC50 at 240 h turned out to be 31000 nM.
